The results in this text go back to patent US11780830B2, “Triazolone derivatives or salts thereof and pharmaceutical compositions comprising the same” (YUHAN CORPORATION, priority 2018, dated 2023).

Common to all, as to type: biochemical
The target of test [1] is T1, recombinant human VAP-1 (Homo sapiens, UniProt Q16853).
T1 construct: purchased R&D systems
T1 sequence (Q16853 1-763): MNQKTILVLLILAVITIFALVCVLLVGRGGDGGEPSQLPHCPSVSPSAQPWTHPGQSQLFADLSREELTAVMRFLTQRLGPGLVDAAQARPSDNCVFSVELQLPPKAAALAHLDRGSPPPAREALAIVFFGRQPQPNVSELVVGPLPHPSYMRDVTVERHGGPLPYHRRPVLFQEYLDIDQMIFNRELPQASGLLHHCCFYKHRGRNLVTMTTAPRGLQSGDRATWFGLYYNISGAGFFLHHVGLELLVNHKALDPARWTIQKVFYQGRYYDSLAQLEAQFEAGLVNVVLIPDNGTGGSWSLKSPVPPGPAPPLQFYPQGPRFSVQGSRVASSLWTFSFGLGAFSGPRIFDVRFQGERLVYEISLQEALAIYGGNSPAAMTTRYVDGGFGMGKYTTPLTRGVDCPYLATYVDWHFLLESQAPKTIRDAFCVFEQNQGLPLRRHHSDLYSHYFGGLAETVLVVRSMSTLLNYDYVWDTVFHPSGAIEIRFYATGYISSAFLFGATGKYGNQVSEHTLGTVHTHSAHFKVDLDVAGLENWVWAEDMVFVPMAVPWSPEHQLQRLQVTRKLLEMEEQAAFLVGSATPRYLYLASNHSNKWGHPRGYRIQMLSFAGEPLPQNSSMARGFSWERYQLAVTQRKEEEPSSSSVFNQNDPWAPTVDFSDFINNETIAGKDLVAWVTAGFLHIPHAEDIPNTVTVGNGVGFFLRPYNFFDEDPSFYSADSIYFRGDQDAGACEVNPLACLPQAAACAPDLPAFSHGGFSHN
Put plainly: Activity on recombinant human VAP-1, HRP-coupled Amplex Red hydrogen peroxide assay. The conditions noted are these: substrate 1 mM benzylamine; compound incubated with enzyme at 37° C. for 30 minutes; pH 7.4; read-out: Inhibitory Activity (IC50, nM) human VAP-1. A digest of the protocol:
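Enzyme in 50 mM sodium phosphate (pH 7.4) is exposed to test compound for 30 min at 37 °C. Benzylamine (1 mM) with HRP and Amplex Red then starts the reaction, and the fluorescence rate, relative to a DMSO-only control, gives IC50.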

Test [2] concerns the target T2, recombinant human MAO-A (monoamine oxidase-A) (Homo sapiens, UniProt P21397).
T2 construct: purchased Sigma-Aldrich
T2 sequence (P21397 1-527): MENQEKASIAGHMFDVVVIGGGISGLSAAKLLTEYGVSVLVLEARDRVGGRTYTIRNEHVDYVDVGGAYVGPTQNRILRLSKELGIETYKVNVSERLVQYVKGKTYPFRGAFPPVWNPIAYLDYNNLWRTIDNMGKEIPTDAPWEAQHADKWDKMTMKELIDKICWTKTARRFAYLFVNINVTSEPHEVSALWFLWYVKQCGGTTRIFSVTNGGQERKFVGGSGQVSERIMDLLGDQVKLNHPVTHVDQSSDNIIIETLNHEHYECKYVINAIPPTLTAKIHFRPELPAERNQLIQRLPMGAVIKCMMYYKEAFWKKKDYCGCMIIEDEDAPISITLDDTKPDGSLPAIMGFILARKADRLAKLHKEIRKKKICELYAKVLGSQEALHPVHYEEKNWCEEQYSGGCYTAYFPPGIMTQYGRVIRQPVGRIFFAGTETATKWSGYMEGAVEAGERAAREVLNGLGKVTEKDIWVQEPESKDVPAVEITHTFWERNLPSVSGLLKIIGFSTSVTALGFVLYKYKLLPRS
The test is described as follows: Activity on recombinant human MAO-A, method similar to the VAP-1 assay. As to conditions: substrate 0.5 mM tyramine; read-out: Inhibitory Activity (IC50, nM) MAO-A. A digest of the protocol:
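Enzyme in pH 7.4 phosphate buffer; 30 min, 37° C with compound (DMSO <1%); start with 200 uM Amplex Red + 1 U/mL HRP + tyramine 0.5 mM (MAO-A) or benzylamine 1 mM (MAO-B); kinetic read ex 544/em 590, 1-2 h; % rate decrease vs DMSO control → IC50, 4-parameter fit.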

For test [3], the target named is T3, recombinant human MAO-B (monoamine oxidase-B) (Homo sapiens, UniProt P27338).
T3 construct: purchased Sigma-Aldrich
T3 sequence (P27338 1-520): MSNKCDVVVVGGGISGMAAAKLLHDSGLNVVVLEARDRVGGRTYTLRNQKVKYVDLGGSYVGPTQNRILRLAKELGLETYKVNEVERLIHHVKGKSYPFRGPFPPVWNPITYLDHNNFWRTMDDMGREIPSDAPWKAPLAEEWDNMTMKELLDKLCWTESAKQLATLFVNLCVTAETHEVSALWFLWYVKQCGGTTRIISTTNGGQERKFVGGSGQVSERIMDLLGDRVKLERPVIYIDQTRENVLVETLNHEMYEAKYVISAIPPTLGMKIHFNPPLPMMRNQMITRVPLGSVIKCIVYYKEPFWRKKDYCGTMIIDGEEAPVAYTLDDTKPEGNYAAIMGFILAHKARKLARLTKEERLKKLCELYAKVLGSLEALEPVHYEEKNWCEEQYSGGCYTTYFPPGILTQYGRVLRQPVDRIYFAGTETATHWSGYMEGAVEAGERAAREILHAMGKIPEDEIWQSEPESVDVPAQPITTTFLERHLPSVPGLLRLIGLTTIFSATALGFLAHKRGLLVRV
The test is described as follows: Activity on recombinant human MAO-B, method similar to the VAP-1 assay. As to conditions: substrate 1 mM benzylamine; read-out: Inhibitory Activity (IC50, nM) MAO-B. The method, then:
The compounds according to the present technology were evaluated in terms of activity on recombinant human VAP-1 (R&D systems) by measuring the level of hydrogen peroxide in horseradish peroxidase (HRP)-coupled reaction using Amplex Red Hydrogen Peroxide Assay Kit (Molecular Probes, Invitrogen, USA). The experiment was carried out at room temperature using benzylamine as a substrate. In the HRP-coupled reaction, hydrogen peroxide oxidation of 10-acetyl-3,7-dihydroxyphenoxazine (Amplex Red reagent) produces resorufin, which is a highly fluorescent compound. Briefly, the test compound was dissolved in dimethyl sulfoxide (DMSO) at a concentration of 20 mM. The dose-response assessment was made by 1:3 serial dilution in DMSO, thereby creating an 8 point curve. The concentration of the upper part was controlled according to the efficacy of the compounds, followed by dilution with a reaction buffer solution to obtain a final DMSO concentration less than 1%. To each well of a 96 black well plate, human VAP-1 purified in 50 mM sodium phosphate buffer solution (pH7.4) was added. The test compounds dissolved in DMSO were incubated with the human VAP-1 enzymes at 37° C. for 30 minutes. After 30-minute incubation, each well is added with a reaction mixture containing 200 uM Amplex Red reagent prepared from 50 mM sodium phosphate buffer solution (pH 7.4), 1 mM benzylamine, and 1 U/mL HRP. Fluorescence intensity was measured at several time points during 1-2 hours using a microplate reader (Flexstation3, Molecular Devices) under the wavelength condition exciting at 544 nm and reading the emission at 590 nm. The inhibitory effect of the compounds was measured as a decrease (%) in the signal rate as compared to the control group without any inhibitor (only diluted DMSO). Data was fixed to a logistic model with four variables and IC50 value was calculated using GraphPad Prism program.
In addition, the compounds according to the present technology were evaluated in terms of activity on a recombinant human MAO-A (monoamine oxidase-A, Sigma-Aldrich) and a recombinant human MAO-B (monoamine oxidase-B, Sigma-Aldrich) by using as substrates, 0.5 mM tyramine and 1 mM benzylamine, respectively, with a method similar to the activity evaluation method for recombinant human VAP-1. The compounds according to the present technology were also evaluated in terms of activity on a recombinant human DAO (diamine oxidase, R&D systems) by using as a substrate 1 mM putrescine with a method similar to the activity evaluation method for recombinant human VAP-1.

In test [4] the target is T4, recombinant human DAO (diamine oxidase) (Homo sapiens, UniProt P19801).
T4 construct: purchased R&D systems
T4 sequence (P19801 20-751): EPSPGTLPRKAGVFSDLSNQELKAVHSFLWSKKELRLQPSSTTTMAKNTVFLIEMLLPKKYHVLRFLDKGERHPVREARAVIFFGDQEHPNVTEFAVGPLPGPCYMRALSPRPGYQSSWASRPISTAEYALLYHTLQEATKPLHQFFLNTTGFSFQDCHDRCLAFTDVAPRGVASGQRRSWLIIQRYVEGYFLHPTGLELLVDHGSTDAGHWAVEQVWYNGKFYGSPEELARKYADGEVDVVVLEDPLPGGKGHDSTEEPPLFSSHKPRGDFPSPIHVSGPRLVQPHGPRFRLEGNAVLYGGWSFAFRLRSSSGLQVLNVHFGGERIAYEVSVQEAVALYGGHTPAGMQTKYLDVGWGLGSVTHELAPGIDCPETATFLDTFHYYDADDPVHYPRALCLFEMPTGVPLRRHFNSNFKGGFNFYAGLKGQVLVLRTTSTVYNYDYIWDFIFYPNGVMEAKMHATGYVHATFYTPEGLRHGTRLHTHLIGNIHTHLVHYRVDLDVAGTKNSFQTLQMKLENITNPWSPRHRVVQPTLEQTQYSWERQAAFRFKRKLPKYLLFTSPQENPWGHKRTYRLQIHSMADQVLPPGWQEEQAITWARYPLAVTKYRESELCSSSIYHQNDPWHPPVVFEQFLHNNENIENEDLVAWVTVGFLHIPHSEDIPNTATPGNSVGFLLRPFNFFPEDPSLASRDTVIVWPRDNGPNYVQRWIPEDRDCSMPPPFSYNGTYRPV
Put plainly: Activity on recombinant human DAO, method similar to the VAP-1 assay. The conditions noted are these: substrate 1 mM putrescine; read-out: Inhibitory Activity (IC50, nM) DAO. A digest of the protocol: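 Inhibition of recombinant human diamine oxidase (DAO, R&D systems) was assessed by the same approach as the VAP-1 assay, using 1 mM putrescine as substrate. Hydrogen peroxide formed was detected through an HRP-coupled Amplex Red reaction yielding fluorescent resorufin, read at 544 nm excitation and 590 nm emission. IC50 values came from four-parameter logistic fitting in GraphPad Prism.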

Structures can show the parent of a compound that is named as a salt.

Take `CC(=O)N1CCN(c2ccc(-c3ccc(Cn4cnn(C/C(=C/F)CN)c4=O)s3)cc2)CC1` [Example 24, 4-(5-[4-(4-acetylpiperazin-1-yl)phenyl]thiophen-2-ylmethyl)-2-[(2E)-2-(aminomethyl)-3-fluoroprop-2-en-1-yl]-2,4-dihydro-3H-1,2,4-triazol-3-one hydrochloride]: the IC50 was 1.4 nM in test [1], 21000 nM in test [2], greater than 10000 nM in test [3] and 670 nM in test [4].

In the case of `NC/C(=C\F)Cn1ncn(CCc2ccc(-c3ccc(N4CCNCC4)cc3)s2)c1=O` [Example 221, 2-[(2E)-2-(aminomethyl)-3-fluoroprop-2-en-1-yl]-4-(2-{5-[4-(piperazin-1-yl)phenyl]thiophen-2-yl}ethyl)-2,4-dihydro-3H-1,2,4-triazol-3-one], the half-maximal inhibitory concentration (IC50) in test [1] is 1.8 nM; in test [2], greater than 100000 nM; in test [3] it was greater than 100000 nM; in test [4], 1420 nM.

On to `COc1cc(-c2ccc(Cn3cnn(C/C(=C/F)CN)c3=O)s2)cc(OC)c1OC` [Example 17, 2-[(2E)-2-(aminomethyl)-3-fluoroprop-2-en-1-yl]-4-[5-(3,4,5-trimethoxyphenyl)thiophen-2-yl]methyl-2,4-dihydro-3H-1,2,4-triazol-3-one hydrochloride], for which the IC50 in test [1] was 1.2 nM; in test [2], greater than 100000 nM; in test [3], 1000 nM; in test [4], 620 nM.

On to `NC/C(=C\F)Cn1ncn(Cc2cc3cc(-c4ccc(C(F)(F)F)nc4)ccc3s2)c1=O` [Example 209, 2-[(2E)-2-(aminomethyl)-3-fluoroprop-2-en-1-yl]-4-({5-[6-(trifluoromethyl)pyridin-3-yl]-1-benzothiophen-2-yl}methyl)-2,4-dihydro-3H-1,2,4-triazol-3-one], for which the half-maximal inhibitory concentration (IC50) was 2.3 nM in test [1], greater than 100000 nM in test [2], 990 nM in test [3] and 1500 nM in test [4].

For `COCCOc1ccc(-c2ccc(Cn3cnn(C/C(=C/F)CN)c3=O)s2)cc1` [Example 19, 2-[(2E)-2-(aminomethyl)-3-fluoroprop-2-en-1-yl]-4-(5-[4-(2-methoxyethoxy)phenyl]thiophen-2-ylmethyl)-2,4-dihydro-3H-1,2,4-triazol-3-one hydrochloride], the half-inhibitory concentration (IC50) in test [1] was 4.6 nM; in test [2] it was greater than 100000 nM; in test [3], 1100 nM; in test [4] it was 1800 nM.

`NC/C(=C\F)Cn1ncn(Cc2ccc(C3=CCNCC3)s2)c1=O` [Example 163, 2-[(2E)-2-(aminomethyl)-3-fluoroprop-2-en-1-yl]-4-{[5-(1,2,3,6-tetrahydropyridin-4-yl)thiophen-2-yl]methyl}-2,4-dihydro-3H-1,2,4-triazol-3-one]: the IC50 was 2.1 nM in test [1], greater than 100000 nM in test [2], 5500 nM in test [3] and 300 nM in test [4].

For `NC/C(=C\F)Cn1ncn(Cc2ccc(-c3cc(F)c4c(c3)CNC4=O)s2)c1=O` [Example 70, hydrochloride], the concentration for half-maximal inhibition (IC50) was 0.1 nM in test [1], greater than 100000 nM in test [2], 2800 nM in test [3] and 289 nM in test [4].

By IC50 is commonly meant the concentration that gives 50% inhibition.
